Data from the METLIN SMRT retention time set (Domingo-Almenara et al. 2019).

Experiment: gradient 5% acetonitrile 3 min, to 50% in 2 min, to 85% in 15 min, held 3 min, 100 µL/min
Details: column: Zorbax Extend-C18 2.1 x 50 mm; eluents: water / acetonitrile, 0.1% formic acid
In short: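 Retention time was recorded from adduct peaks, which were picked computationally and each inspected manually. Pure standards ran in mixtures of ~100 molecules on HPLC coupled to a quadrupole time-of-flight mass spectrometer, in positive and negative ionization mode, through a Zorbax Extend-C18 column (2.1 × 50 mm, 1.8 μm) at 100 μL/min. Eluents were water and acetonitrile, each with 0.1% formic acid.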

| SMILES | RP-LC retention time |
| --- | --- |
| CC1(C)C(=O)N(CC(=O)N2CCN(c3ccccn3)CC2)c2ccccc21 | 600 s |
| COc1cc(NC(=O)NCC(c2cccnc2)c2c[nH]c3ccccc23)cc(OC)c1OC (stereo not given) | 631 s |
| CCN1C(=O)COc2ccc(-c3csc(NC(=O)CC(C)C)n3)cc21 | 928 s |
| Cc1ccc(-c2ccc(-n3nc(C)c(S(=O)(=O)NCCN4CCCCC4C)c3C)nn2)cc1C (stereo not given) | 748 s |
| CCOc1ccc(C(O)CN2CCN(c3ccccn3)CC2)cc1 (stereo not given) | 560 s |
| CCOc1ccc(N2CC(c3nc(-c4ccc5c(c4)OCO5)no3)CC2=O)cc1 (stereo not given) | 982 s |
| FC(F)(F)c1ccc(Nc2nc3ccc(Oc4ccnc(-c5ncc(C(F)(F)F)[nH]5)c4)cc3[nH]2)cc1 | 844 s |
| CC(=O)Nc1ccc(NC(=O)c2nn(-c3ccccc3)c3ccccc3c2=O)cc1 | 714 s |
| O=c1c2nc(-c3ccc(F)cc3F)cn2ccn1-c1cccc(Cl)c1 | 949 s |
| CCCN(C)c1nccnc1OC1CCN(C(=O)C2CCCCC2)C1 (stereo not given) | 938 s |
| COc1ccc2c(c1)-c1nc(NC(=O)c3cccc(Br)c3)sc1CC2 | 1230 s |
| CCCOc1nn(CCC)cc1C(=O)NCc1ccccc1Cl | 1010 s |
| Cc1noc(C)c1CC(=O)N1CCC(Cc2noc(C3CC3)n2)C1 (stereo not given) | 748 s |
| CCOc1ccc(-n2cc(-c3nc(-c4cccc(OC)c4)no3)c3ccccc3c2=O)cc1 | 1390 s |
| CCN(CC)CCCNC(=O)C(C)n1c2ccccc2c2cnn(C)c(=O)c21 (stereo not given) | 559 s |
| CCCCNC(=O)C1c2cc(OC)c(OC)cc2C(=O)N(C)C1c1ccc(OC)c(OC)c1 (stereo not given) | 710 s |
| COc1ccc(/C=C2/CCOC2=O)cc1 | 833 s |
| Cc1ccc(-c2cn3cccnc3n2)cc1NC(=O)c1ccc(C(C)(C)C)cc1 | 816 s |
| CNC(=O)c1ccc(-n2nc(Sc3ccc(OC)cc3)ccc2=O)cc1 | 702 s |
| CCCc1noc(-c2ccnc(-n3cnc(C(=O)NC(C)C)c3)c2)n1 | 849 s |
| CCOc1ncccc1CNC(=O)c1cnccn1 | 600 s |
| CCOC(=O)C(Cc1c[nH]c2ccccc12)NC(=O)COc1ccc(Cl)cc1 (stereo not given) | 1010 s |
| Cc1nc2c(sc3nc(-c4ccccc4)ccc32)c(=O)n1CC(=O)Nc1ccccc1C(F)(F)F | 1070 s |
| CS(=O)(=O)c1ccc(C(=O)Nc2cccc(Cl)c2Cl)cc1 | 791 s |

| SMILES | RP-LC retention time |
| --- | --- |
| COC(=O)c1cccc(NS(=O)(=O)c2cc3n(c2)CCN(C)C3=O)c1 | 683 s |
| O=C1c2ccccc2C(=O)N1CCn1ncccc1=O | 603 s |
| O=C(NCC(c1cccs1)N1CCc2ccccc21)c1ccco1 (stereo not given) | 894 s |
| Cc1cnc(-c2ccncc2)n1CC1CN(Cc2cccn2C)C1 | 692 s |
| Cc1nc(-c2nnn(-c3ccc(F)cc3)c2C)no1 | 789 s |
| Cc1cccc(-c2nc3ccccn3c2NC(=O)NCc2ccc(F)cc2)c1 | 714 s |
| CCOc1ccc(-n2nnc(-c3nc(-c4ccc(C(C)C)cc4)cs3)c2N)cc1 | 1350 s |
| Cc1cc(C(N)=O)c2cc(C(C)C)ccc2n1 | 591 s |
| CC(C)n1cc(C2=CCN(S(=O)(=O)c3ccccc3)CC2)c2cccnc21 | 702 s |
| CCCN1C(=O)c2cc(S(=O)(=O)Nc3ccc(C)cc3)ccc2Oc2cccnc21 | 1100 s |
| Cn1cc(CC(=O)NCc2cccc(Cl)c2)c2cccnc21 | 725 s |
| Cc1nc2cc(-c3noc(-c4ccc(F)cc4)n3)ccc2n(C)c1=O | 1030 s |
| N#CC(c1ccc(Cl)cc1)c1c(Cl)cc(N2NCC(=O)NC2=O)cc1Cl (stereo not given) | 1020 s |
| COc1ccccc1N1CCN(c2cc(SCC(=O)NC(C)CCc3ccccc3)ncn2)CC1 (stereo not given) | 1020 s |
| CCn1cc(CCNC(=O)Nc2cccc(Cl)c2F)c2cccnc21 | 802 s |
| Cc1cccc2nc(-c3ccc(Cl)cc3)c(Nc3ccc4c(c3)OCO4)n12 | 750 s |
| O=C1C(Nc2ccccc2)=CC(=O)c2ncccc21 | 734 s |
| Cc1cccn2c(NC(=O)c3cc4ccccc4oc3=O)c(-c3ccccc3)nc12 | 695 s |
| Cc1ccc(S(=O)(=O)NCC(=O)Oc2ccccc2C)cc1 | 881 s |
| CCc1nnc2ccc(-c3noc(-c4c(F)cccc4F)n3)cn12 | 845 s |
| COc1cccc(CNC(=O)Cn2c(-c3ccc(F)cc3)ncc(C#N)c2=O)c1 | 873 s |
| COC(=O)CCSCc1ccc(-c2onc(C)c2NC(=O)OC(C)c2ccccc2Cl)cc1 (stereo not given) | 1150 s |
| CCOCC(=O)N1CCCC(c2nc(CNC(=O)C3CCC3)cs2)C1 (stereo not given) | 645 s |
| CCOC(=O)c1c(C)[nH]c(C(=O)N2CCC(CC(=O)N(C)Cc3ccco3)CC2)c1C | 765 s |

Now from value to compound:

| RP-LC retention time | SMILES |
| --- | --- |
| 624 s | Cc1cc(C)c2c(N3CCSCC3)nc(C(=O)NCC3CCCO3)nc2n1 (stereo not given) |
| 937 s | O=C(NC1CCCC1)c1csc(-c2ccc(N3CCCCC3)nc2)n1 |
| 590 s | Cc1ccc(NC(=O)CCNc2cnc3cnccn23)cc1Cl |
| 974 s | O=C1c2cc(NC(=O)C3(c4cccs4)CCCC3)ccc2OCCC2CCCCN12 (stereo not given) |
| 797 s | COc1cccc(Oc2ncc(-c3cccc(C(=O)NC4CC4)c3)cn2)c1 |
| 734 s | CC1CCC(C(=O)Nc2ccc(-c3nnc4n3CCCC4)cc2)CC1 (stereo not given) |
| 843 s | N#Cc1ccc(Cl)cc1NC(=O)c1ccc(N2CCOCC2)nn1 |
| 674 s | COC(CNC(=O)C1CCN(C(=O)c2ncn3c2COC(c2ccc(F)cc2)C3)CC1)OC (stereo not given) |
| 842 s | Cc1ccc(NC(=O)C2CC(=O)N(CCc3c[nH]c4ccc(C)cc34)C2)c(C)c1 (stereo not given) |
| 703 s | COc1ccc(-c2noc(C3CCN(CC(=O)Nc4ccc5c(c4)OCO5)CC3)n2)cc1 |
| 927 s | COc1cccc(-c2noc(C3CCCN3C(=O)Nc3cccc(C#N)c3)n2)c1 (stereo not given) |
| 763 s | O=C(c1cccc(Cl)c1)N1CCN(c2cc(-c3ccccc3)[nH]n2)CC1 |
| 960 s | O=C(CCC1CCCN(C(=O)Nc2ccc(Cl)cc2)C1)NCc1cccc(Cl)c1 (stereo not given) |
| 742 s | O=C(Nc1ccc(F)c(F)c1)C1CCc2nc(N3CCOCC3)ncc2C1 (stereo not given) |
| 675 s | Cc1ccc(CNC(=O)Cn2nc3n(c2=O)CCCCC3)cc1 |
| 915 s | O=C(Cc1ccsc1)NCCC1CCN(C(=O)Nc2cc(F)ccc2F)CC1 |
| 733 s | CC1=C(c2ccc(Cl)cc2)S(=O)(=O)N=C1N1CCC(NC(=O)C2CCOC2)CC1 (stereo not given) |
| 1110 s | O=S(=O)(c1ccc(-c2cc(C(F)(F)F)on2)o1)N1CCCCC1 |
| 1130 s | O=C(NCc1cccc(Br)c1)C1CCCN(c2nccnc2Sc2ccccc2)C1 (stereo not given) |
| 1170 s | Cn1nccc1-c1cccc(-c2noc(-c3ccc(F)c(F)c3)n2)c1 |
| 823 s | Cc1oc(-c2ccc(NC(=O)c3ccsc3)cc2)nc1Cn1cccn1 |

| RP-LC retention time | SMILES |
| --- | --- |
| 719 s | CCOc1ccc(-n2nnc(-c3nc(C)c(C(=O)N4CCC(C(N)=O)CC4)s3)c2C)cc1 |
| 866 s | COc1ccc(C(C)NC(=O)Cn2c(C)cc(-c3nnc(C4CCC4)o3)c2C)cc1 (stereo not given) |
| 883 s | O=C(c1ccccc1F)N1CCc2nc(-c3ccccc3)ncc2C1 |
| 705 s | COc1ccc(N2CCN(C(=O)C3CCN(C(=O)C4Sc5ccccc5NC4=O)CC3)CC2)cc1 (stereo not given) |
| 813 s | O=C(NCc1ccc(F)cc1)c1ccc2c(c1)CCN2C(=O)C1CC1 |
| 922 s | O=C(Nc1ccc(C2(C(=O)N3CCN(c4ccc(F)cc4)CC3)CCC2)cc1)C1CC1 |
| 750 s | CC(=O)N1CCCc2cc(S(=O)(=O)CCC(=O)N3CCN(c4cccc(C)c4)C(C)C3)ccc21 (stereo not given) |
| 814 s | O=C(NCC1CC1)C1CCN(c2nc3ccsc3c(=O)n2Cc2ccccc2)CC1 |
| 742 s | COc1ccc(NC(=O)N2CCC3(CC2)NC(=O)c2cc(C)ccc2N3C)cc1 |
| 596 s | Cc1cc(C)n(-c2ccc(N3CCN(C(=O)COc4ncccn4)CC3)nn2)n1 |
| 898 s | O=C(NCC1CCCO1)c1ccccc1OCc1nc(-c2ccccc2)no1 (stereo not given) |
| 769 s | CC(C)(C)n1nnnc1C1CC2(CCOCC2)C(=O)N1Cc1ccccc1 (stereo not given) |
| 702 s | O=C(NCc1ccccc1)C1CCc2sc(C(=O)N3CCCC3)cc2C1 (stereo not given) |
| 617 s | COc1cc(C(=O)NCC(c2ccc3c(c2)OCO3)N2CCOCC2)cc(OC)c1OC (stereo not given) |
| 647 s | CC(C)c1cc(CNc2nc(Nc3cc(C4CC4)[nH]n3)cc(N3CCN(C)CC3)n2)on1 |
| 653 s | O=C(NCc1cccc(Br)c1)C1CCCN(c2ccc(N3CCOCC3)nn2)C1 (stereo not given) |
| 596 s | Cc1ccn2cc(-c3ccc(NC(=O)c4ccco4)cc3)nc2n1 |
| 917 s | CCc1cc(C(=O)Nc2ccc(OC)cc2)nc2ccnn12 |
| 682 s | Cn1cnnc1C1CCCCN1C(=O)COc1ccc(F)c(F)c1 (stereo not given) |
| 579 s | Cc1cccc2c(C(N)=O)cc(N3CCN(C)CC3)nc12 |
| 804 s | CCN1C(=O)C(CC(=O)NC2CCCCCC2)Sc2ncccc21 (stereo not given) |
